Experimental findings from patent US8802664B2 (Bioproject, priority 2010, dated 2014) are described below.

One data set concerns the target T1, human H4 receptor (Homo sapiens, UniProt Q9H3N8).
T1 construct: expressed in transfected cells
In words: [3H]Histamine binding on membranes of CHO cells stably expressing human H4 receptor. The method in brief: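 First, thawed CHO membranes carrying human H4 were diluted to 20 μg protein per well in pH 7.4 Tris/EDTA buffer. Next, incubation was ended by rapid filtration through PEI-treated GF/B filters followed by cold rinses. Finally, retained radioactivity was counted; 10 μM JNJ 7777120 marked nonspecific binding.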

T1 sequence (Q9H3N8 whole entry): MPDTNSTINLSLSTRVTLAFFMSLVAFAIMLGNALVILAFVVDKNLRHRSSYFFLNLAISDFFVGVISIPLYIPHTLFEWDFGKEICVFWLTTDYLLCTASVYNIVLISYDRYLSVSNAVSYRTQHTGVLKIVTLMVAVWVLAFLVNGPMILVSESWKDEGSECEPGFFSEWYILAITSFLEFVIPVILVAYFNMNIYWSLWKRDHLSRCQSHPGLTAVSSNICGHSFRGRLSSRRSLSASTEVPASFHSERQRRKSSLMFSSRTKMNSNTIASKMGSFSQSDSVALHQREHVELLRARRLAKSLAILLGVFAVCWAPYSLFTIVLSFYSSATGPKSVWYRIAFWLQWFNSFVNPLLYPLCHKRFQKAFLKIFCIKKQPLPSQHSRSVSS

By melting point is commonly meant the temperature, or range, at which the solid turns liquid. `Cc1ccc(C(OC2CCN(C)CC2)c2nc3cc(F)ccc3[nH]2)c(F)c1` (stereo not shown) [Example 548] showed a melting point of 90 °C. Besides, at human H4 receptor, the Ki or IC50 activity class is less than 30 nM.

On to `Cc1ccc(C(OC2CCN(C)CC2)c2nc3ccccc3[nH]2)c(F)c1F` (stereo not shown) [Example 551], for which the melting point was 80 °C. This compound also showed a Ki or IC50 activity class at human H4 receptor of less than 300 nM.

Regarding `Cc1ccc(C(OC2CCN(C)CC2)c2nc3ccccc3[nH]2)cc1Cl` (stereo not shown) [Example 552], the melting point was found to be 86 °C. On human H4 receptor, this compound showed a Ki or IC50 activity class of less than 300 nM.

`Cc1ccc(C(OC2CCN(C)CC2)c2nc3ccccc3[nH]2)cc1F` (stereo not shown) [Example 554]: the melting point turned out to be 92 °C. Besides, on human H4 receptor, the Ki or IC50 activity class is less than 300 nM.

The compound `CN1CCC(OC(c2nc3ccccc3[nH]2)c2cc(Br)ccc2F)CC1` (stereo not shown) [Example 555] registered a melting point of 232 °C. The compound also had a Ki or IC50 activity class on human H4 receptor of less than 30 nM.

`CN1CCC(OC(c2nc3cc(F)ccc3[nH]2)c2cc(C#CCCCN)ccc2F)CC1` (stereo not shown) [Example 558] had a melting point of 90 °C. This compound also displayed a Ki or IC50 activity class on human H4 receptor of less than 30 nM.

The compound `CCOC(=O)NCCCC#Cc1ccc(F)c(C(OC2CCN(C)CC2)c2nc3ccccc3[nH]2)c1` (stereo not shown) [Example 560] gave a melting point of 87 °C. At human H4 receptor, this compound registered a Ki or IC50 activity class of less than 300 nM.

Take `CN1CCC(OC(c2nc3ccccc3[nH]2)c2ccccc2O)CC1` (stereo not shown) [Example 561, 2-[(1H-benzimidazol-2-yl)(1-methylpiperidin-4-yloxy)methyl]phenol]: the melting point was 118 to 120 °C. The same compound came in with a Ki or IC50 activity class at human H4 receptor of less than 30 nM.

`CN1CCC(OC(c2nc3ccccc3[nH]2)c2cc(Cl)ccc2O)CC1` (stereo not shown) [Example 569] returned a melting point of 185 °C. This compound gave a Ki or IC50 activity class on human H4 receptor of less than 30 nM.

With `CCOC(=O)NCCCC#Cc1ccc(F)c(C(OC2CCN(C)CC2)c2nc3cc(F)ccc3[nH]2)c1` (stereo not shown) [Example 570], the melting point was determined as 95 °C. This compound also showed a Ki or IC50 activity class on human H4 receptor of less than 300 nM.

In turn, `CN1CCC(OC(c2nc3ccccc3[nH]2)c2cc(OC(F)(F)F)ccc2O)CC1` (stereo not shown) [Example 571] returned a melting point of 132 °C. This compound came in with a Ki or IC50 activity class on human H4 receptor of less than 30 nM.

Consider `CN1CCC(OC(c2nc3ccccc3[nH]2)c2cc(F)ccc2O)CC1` (stereo not shown) [Example 572], for which the melting point was 142 °C. The Ki or IC50 activity class at human H4 receptor was less than 30 nM.

In turn, `COc1ccc(O)c(C(OC2CCN(C)CC2)c2nc3ccccc3[nH]2)c1` (stereo not shown) [Example 573] came in with a melting point of 146 °C. For the same compound, on human H4 receptor, the Ki or IC50 activity class was less than 300 nM.

As to `Cc1ccc(C(OC2CCN(C)CC2)c2nc3ccccc3[nH]2)c(O)c1` (stereo not shown) [Example 574], the melting point was found to be 145 °C. This compound also yielded a Ki or IC50 activity class at human H4 receptor of less than 30 nM.

In turn, `CN1CCC(OC(c2nc3ccccc3[nH]2)c2cc(Br)ccc2O)CC1` (stereo not shown) [Example 575] gave a melting point of 145 °C. Further, the Ki or IC50 activity class on human H4 receptor was less than 30 nM.

In the case of `CCOc1ccc(O)c(C(OC2CCN(C)CC2)c2nc3ccccc3[nH]2)c1` (stereo not shown) [Example 576], the melting point amounted to 213 °C. The Ki or IC50 activity class at human H4 receptor was less than 30 nM.

Turning to `CN1CCC(OC(c2nc3ccccc3[nH]2)c2cccc3cc[nH]c23)CC1` (stereo not shown) [Example 577], the melting point came out at 110 °C. On human H4 receptor, this compound came in with a Ki or IC50 activity class of less than 300 nM.

`Cc1ccc(O)c(C(OC2CCN(C)CC2)c2nc3ccccc3[nH]2)c1` (stereo not shown) [Example 578, 2-[(1H-benzimidazol-2-yl)(1-methylpiperidin-4-yloxy)methyl]-4-methylphenol] yielded a melting point of 151 °C. At human H4 receptor, this compound registered a Ki or IC50 activity class of less than 30 nM.

As to `CN1CCC(OC(c2nc3ccccc3[nH]2)c2cc(F)cc(F)c2O)CC1` (stereo not shown) [Example 579], the melting point came to 142 °C. Further, the Ki or IC50 activity class at human H4 receptor is less than 1000 nM.

On to `CN1CCC(OC(c2nc3ccccc3[nH]2)c2cc(Cl)cc(Cl)c2O)CC1` (stereo not shown) [Example 580], for which the melting point was found to be 161 °C. In addition, at human H4 receptor, the Ki or IC50 activity class was less than 1000 nM.

In turn, `CN1CCC(OC(c2nc3ccccc3[nH]2)c2cccc(F)c2O)CC1` (stereo not shown) [Example 581] yielded a melting point of 145 °C. This compound also showed a Ki or IC50 activity class on human H4 receptor of less than 30 nM.

`CN1CCC(OC(c2nc3ccccc3[nH]2)c2c(O)cccc2F)CC1` (stereo not shown) [Example 582] gave a melting point of 129 °C. The compound also registered a Ki or IC50 activity class at human H4 receptor of less than 30 nM.

`CN1CCC(OC(c2nc3ccccc3[nH]2)c2cc(F)c(F)cc2O)CC1` (stereo not shown) [Example 583]: the melting point was 198 °C. The same compound registered a Ki or IC50 activity class at human H4 receptor of less than 300 nM.

The compound `CN1CCC(OC(c2nc3ccccc3[nH]2)c2ccc(F)cc2O)CC1` (stereo not shown) [Example 584] came in with a melting point of 140 °C. At human H4 receptor, this compound returned a Ki or IC50 activity class of less than 30 nM.

`CN1CCC(OC(c2nc3ccccc3[nH]2)c2ccc(Cl)cc2O)CC1` (stereo not shown) [Example 585] returned a melting point of 142 °C. In addition, the Ki or IC50 activity class on human H4 receptor is less than 30 nM.

Consider `Cc1cccc(C(OC2CCN(C)CC2)c2nc3ccccc3[nH]2)c1O` (stereo not shown) [Example 586], for which the melting point came out at 111 °C. Further, the Ki or IC50 activity class at human H4 receptor is less than 30 nM.

`CSc1ccc(O)c(C(OC2CCN(C)CC2)c2nc3ccccc3[nH]2)c1` (stereo not shown) [Example 587] yielded a melting point of 138 °C. For the same compound, the Ki or IC50 activity class on human H4 receptor was less than 30 nM.

In turn, `CCSc1ccc(O)c(C(OC2CCN(C)CC2)c2nc3ccccc3[nH]2)c1` (stereo not shown) [Example 588] returned a melting point of 116 °C. At human H4 receptor, this compound had a Ki or IC50 activity class of less than 30 nM.

Compound `CN1CCC(OC(c2nc3ccccc3[nH]2)c2cc(-c3ccccc3)ccc2O)CC1` (stereo not shown) [Example 589] displayed a melting point of 140 °C. In addition, the Ki or IC50 activity class at human H4 receptor was less than 1000 nM.

For the compound `CN1CCC(OC(c2nc3ccccc3[nH]2)c2cc(C(C)(C)C)ccc2O)CC1` (stereo not shown) [Example 590], the melting point was found to be 139 °C. At human H4 receptor, this compound came in with a Ki or IC50 activity class of less than 1000 nM.

With `CCCc1ccc(O)c(C(OC2CCN(C)CC2)c2nc3ccccc3[nH]2)c1` (stereo not shown) [Example 591], the melting point turned out to be 120 °C. For the same compound, the Ki or IC50 activity class on human H4 receptor is less than 300 nM.

As for `COc1cccc(C(OC2CCN(C)CC2)c2nc3ccccc3[nH]2)c1O` (stereo not shown) [Example 592], the melting point came out at 112 °C. Besides, at human H4 receptor, the Ki or IC50 activity class was less than 300 nM.

In the case of `Cc1cc(O)c(C(OC2CCN(C)CC2)c2nc3ccccc3[nH]2)c(F)c1` (stereo not shown) [Example 593], the melting point was determined as 136 °C. Moreover, at human H4 receptor, the Ki or IC50 activity class was less than 30 nM.

Consider `CN1CCC(OC(c2nc3ccccc3[nH]2)c2c(O)cccc2Cl)CC1` (stereo not shown) [Example 594], for which the melting point is 145 °C. On human H4 receptor, this compound came in with a Ki or IC50 activity class of less than 30 nM.

Compound `Cc1cc(F)c(O)c(C(OC2CCN(C)CC2)c2nc3ccccc3[nH]2)c1` (stereo not shown) [Example 595] returned a melting point of 144 °C. Further, the Ki or IC50 activity class on human H4 receptor is less than 300 nM.

In turn, `CN1CCC(OC(c2nc3ccccc3[nH]2)c2cc(Cc3ccccc3)ccc2O)CC1` (stereo not shown) [Example 596] returned a melting point of 120 °C. Further, the Ki or IC50 activity class at human H4 receptor is less than 30 nM.

Take `CN1CCC(OC(c2nc3ccccc3[nH]2)c2cc(C(F)(F)F)ccc2O)CC1` (stereo not shown) [Example 598]: the melting point was found to be 135 °C. The same compound registered a Ki or IC50 activity class on human H4 receptor of less than 300 nM.

In the case of `CN1CCC(OC(c2nc3ccccc3[nH]2)c2cc(Cl)cc(F)c2O)CC1` (stereo not shown) [Example 599], the melting point was 146 °C. This compound also displayed a Ki or IC50 activity class on human H4 receptor of less than 300 nM.

In turn, `Cc1cc(F)cc(O)c1C(OC1CCN(C)CC1)c1nc2ccccc2[nH]1` (stereo not shown) [Example 600] returned a melting point of 146 °C. This compound also yielded a Ki or IC50 activity class on human H4 receptor of less than 30 nM.

In the case of `Cc1ccc(C(OC2CCN(C)CC2)c2nc3ccccc3[nH]2)c(O)c1F` (stereo not shown) [Example 601, 6-[(1H-benzimidazol-2-yl)(1-methylpiperidin-4-yloxy)methyl]-2-fluoro-3-methylphenol], the melting point worked out at 148 °C. This compound yielded a Ki or IC50 activity class at human H4 receptor of less than 30 nM.

In turn, `CN1CCC(OC(c2nc3ccccc3[nH]2)c2cc3c(cc2O)CCC3)CC1` (stereo not shown) [Example 602] came in with a melting point of 152 °C. The Ki or IC50 activity class on human H4 receptor was less than 300 nM.

Consider `CCCOc1ccc(O)c(C(OC2CCN(C)CC2)c2nc3ccccc3[nH]2)c1` (stereo not shown) [Example 603], for which the melting point stood at 120 °C. Also, the Ki or IC50 activity class on human H4 receptor was less than 300 nM.

The compound `CN1CCC(OC(c2nc3ccccc3[nH]2)c2cc(C(C)(C)c3ccccc3)ccc2O)CC1` (stereo not shown) [Example 604] yielded a melting point of 130 °C. Moreover, the Ki or IC50 activity class on human H4 receptor is less than 300 nM.

In turn, `CN1CCC(OC(c2nc3ccccc3[nH]2)c2cc(OCCF)ccc2O)CC1` (stereo not shown) [Example 605] had a melting point of 222 °C. In addition, on human H4 receptor, the Ki or IC50 activity class was less than 30 nM.

`CN1CCC(OC(c2nc3ccccc3[nH]2)c2cc(OCCCF)ccc2O)CC1` (stereo not shown) [Example 606]: the melting point was determined as 114 °C. The Ki or IC50 activity class on human H4 receptor was less than 300 nM.

In turn, `Cc1cc(F)cc(C(OC2CCN(C)CC2)c2nc3ccccc3[nH]2)c1O` (stereo not shown) [Example 607] registered a melting point of 111 °C. Also, the Ki or IC50 activity class at human H4 receptor was less than 1000 nM.

`COc1cc(F)c(O)c(C(OC2CCN(C)CC2)c2nc3ccccc3[nH]2)c1` (stereo not shown) [Example 608] came in with a melting point of 132 °C. This compound gave a Ki or IC50 activity class at human H4 receptor of less than 300 nM.

In the case of `CN1CCC(OC(c2nc3ccccc3[nH]2)c2cc(Oc3ccccc3)ccc2O)CC1` (stereo not shown) [Example 609], the melting point is 140 °C. Further, the Ki or IC50 activity class on human H4 receptor is less than 300 nM.

`COc1cc(F)cc(C(OC2CCN(C)CC2)c2nc3ccccc3[nH]2)c1O` (stereo not shown) [Example 610]: the melting point is 108 °C. In addition, the Ki or IC50 activity class at human H4 receptor was less than 1000 nM.

Compound `Cc1cc(O)c(C(OC2CCN(C)CC2)c2nc3ccccc3[nH]2)cc1C` (stereo not shown) [Example 611] yielded a melting point of 139 °C. The Ki or IC50 activity class on human H4 receptor was less than 30 nM.

`CN1CCC(OC(c2nc3ccccc3[nH]2)c2cc(SCCCF)ccc2O)CC1` (stereo not shown) [Example 612] yielded a melting point of 128 °C. The compound further came in with a Ki or IC50 activity class on human H4 receptor of less than 30 nM.

In turn, `Cc1cc(O)c(C(OC2CCN(C)CC2)c2nc3ccccc3[nH]2)cc1F` (stereo not shown) [Example 613] yielded a melting point of 102 °C. The Ki or IC50 activity class at human H4 receptor is less than 30 nM.

With `CN1CCC(OC(c2nc3ccccc3[nH]2)c2cc(SCCF)ccc2O)CC1` (stereo not shown) [Example 614], the melting point worked out at 127 °C. On human H4 receptor, this compound had a Ki or IC50 activity class of less than 30 nM.
